Laboratory results taken from patent publication US20250000987A1, “RETINOIC ACID COMPOUND, PHARMACEUTICAL COMPOSITION THEREOF AND USE THEREOF” (Mastery Biotech CO., LTD., priority 2022, published 2025).

Assays:
SARS-COV-2 = settings: Example 2; 0.35 mg/kg intranasally twice daily, 3-day treatment; versus isotretinoin and liposome-encapsulated isotretinoin; FIG. 3
From the text: Golden Syrian hamsters (aged 5-6 weeks old and having an average weight of about 100 g) were obtained from the National Laboratory Animal Center (Taipei, Taiwan). The hamsters were housed in an animal room under specific-pathogen-free (SPF) conditions commonly applied in the art. Furthermore, water and feed were provided ad libitum for all the hamsters.
The hamsters were infected with SARS-COV-2 (obtained from P3 Lab, the Genomics Research Center, Academia Sinica; WuHan wild type) in phosphate buffered saline (PBS) through intranasal inoculation at 1×10^4 plaque-forming units (PFU) on 12:00 PM so as to establish a SARS-COV-2 animal model.
The infected hamsters obtained as mentioned above were divided into the following four groups (n=5 per group): a control group (abbreviated as “Control”), two comparative groups (respectively abbreviated as “Comparative_1” and “Comparative_2”) and one experimental group (abbreviated as “Experimental_1”). […]
After the 3-day treatment, the hamsters were sacrificed, and the lungs thereof were collected for live viral load measurement by TCID50 assay in Vero E6 cells. The virus titer was determined in terms of the 50% tissue culture infectious dose (TCID50) using the Reed-Muench method. […]
The experimental data were analyzed by Tukey's test so as to evaluate the differences between the groups. […]

SARS-COV-2 PLpro = SARS-COV-2 PLpro (Severe acute respiratory syndrome coronavirus 2, UniProt P0DTD1); format: biochemical

## CC1=C(/C=C/C(C)=C/C=C/C(C)=C\C(=O)NCCCO[C@@H]2O[C@H](CO)[C@H](O)[C@H](O)[C@H]2O)C(C)(C)CCC1 [Galactose-modified isotretinoin, (2Z,4E,6E,8E)-3,7-dimethyl-N-(3-(((2R,3R,4S,5R,6R)-3,4,5-trihydroxy-6-(hydroxymethyl)tetrahydro-2H-pyran-2-yl)oxy)propyl)-9-(2,6,6-trimethylcyclohex-1-en-1-yl) nona-2,4,6,8-tetraenamide]
SARS-COV-2
  TCID50 (lung virus titer): significantly lower
SARS-COV-2 PLpro; Example 1, 50 μM inhibiting agent, PLpro 0.9 μM, preincubation 30 minutes, 30° C., 300 seconds, mean±standard deviation
  Inhibition percentage (%): 34.21 ± 0.17%
SARS-COV-2 PLpro; versus isotretinoin or the individual components, FIG. 2, FIG. 11
  inhibiting the enzymatic activity of PLpro, comparison in words: more effective than isotretinoin only
